In patent publication US10266545B2, “Coumarin derivative as antiviral agent, pharmaceutical composition thereof, its preparation and use” (I-NOVA MEDICINSKA ISTRAZIVANJA D.O.O., priority 2016, dated 2019):

Test system: HIV-1
Assay: Microtiter infectivity assay: protection of MT-4 cells from cytopathic effect of HIV-1 (MTT)
Assay type: cell-based, human immunodeficiency virus 1 (HIV-1) subtype B
Settings: for IC50: Human immunodeficiency virus 1, MT4, inhibits 50% viral replication; for Survival (% protection): MT-4 cells infected with HIV-1; for SI = CC50/IC50: selectivity index, MT-4 cells, MTT assay
Protocol: The first study of antiviral activity of compound 1 and the control compound 2 was performed on example of its influence on replication of human immunodeficiency virus 1 (HIV-1) by microtiter infectivity assay in cell culture and by evaluation of concentration of compound 1 or 2, which inhibits virus replication by 50% (IC50) as well as by selectivity index (SI).
The cell line used in this study was also the MT-4 cell line as described above.
A microplate assay of infectivity in cell culture, based on consideration of a cytopathic effect of the virus was described in the literature, see reference 8. At least 4 different concentrations: 10×MNC, MNC^−1, MNC^−2, and MNC^−3 were used.
In each trial, the following controls were set: • (i) cell control—only cells in culture medium and not infected with the virus; and • (ii) viral control—one column to cells infected with the virus were added only medium (200 μl) without the test compound 1 or the control compound 2.
The activity of compound 1 or control compound 2 against the cytopathic effect of HIV-1 was expressed as percentage (%) protection (survival) of the cells defined by the following formula:
[formula] wherein: • ODVS=absorption of cells infected and treated with compound 1 or 2 • ODVC=absorption of the virus-infected cells (virus control without compound 1 or 2), and • ODCC=absorption of uninfected cells (cell control)
The inhibitory concentration 50% (IC50) was defined as the concentration of test compound 1 or control compound 2, expressed in mM, which inhibits 50% viral replication. IC50 was determined directly from the curve “dose (concentration)—response (anti-HIV effect)”. The IC50 was expressed as percentage (%) of: • (i) cell viability which was obtained by the MTT assay; or • (ii) percentage (%) inhibition of enzyme reverse transcriptase (RT) activity.
On the basic of the data about CC50 and IC50 for the test substance 1 or control substance 2, the selectivity index (SI) value was estimated.
The compounds 1 or 2 were dissolved in dimethyl sulfoxide (DMSO; Sigma-Aldrich, USA) to a concentration of 1 mol/l (1 M) and after diluted in cell growth medium RPMI 1640 with 2% heat inactivated fetal bovine serum (FBS; Sigma-Aldrich, USA). All further solutions of compounds 1 or 2 were prepared ex tempore.
MT-4 cell line was not infected with HIV-1 and was used as a classic model for reproduction of acute infection with HIV-1. The cells were cultivated in RPMI 1640 growth medium supplemented with 15% fetal bovine serum (FBS; Sigma-Aldrich, USA), 100 U/ml penicillin G sodium (Sigma-Aldrich, USA), and 100 μg/ml streptomycin sulphate (Sigma-Aldrich, USA).
HIV-1 culture fluid was chronically infected and producing HIV-1 subtype B cell line H9/HTLV III B. The culture fluid was centrifuged and collected as a virus stock. The latter, used in the experiments, was of predetermined infectivity of 2·10^6 infectious virions/ml according to the microtiter infectivity assay based on the cytopathic effect of HIV, through ingestion of MTT, containing protein 24 antigen (p24) and enzyme reverse transcriptase (RT).
After counting the cells, they were resuspended in growth medium at a concentration of 6-8·10^4 cells/100 μl. Followed screening of cell suspensions (100 μl/well of that above) into sterile 96-well plates pretreated with poly-L-lysine (PLL). Since the final volume of the culture medium in each well was 200 μl, additional 100 μl of 10% FBS (containing no cells) was added. At the end of rows and columns were not seeded cells, but only culture medium without FBS.
After 24 h, the supernatant was decanted and added in 50 μl HIV-1 in dilution 10^−1. One or two columns were not infected, acting as the control cells. The plate was placed in an incubator at 37° C. and 5% content of CO2, for 1 h. The virus was then removed and in one or two columns of infected cells were added 200 μl medium containing the appropriate concentration of the test substance 1 or the control substance 2. […]

[1] = MT-4 cells infected with HIV-1, MTT assay

SMILES	IC50 [1] [nM]	Survival (% protection) (concentration 0.000001 mM) [%]	Survival (% protection) (concentration 0.00001 mM) [%]	Survival (% protection) (concentration 0.0001 mM) [%]	Survival (% protection) (concentration 0.001 mM) [%]	Survival (% protection) (concentration 0.005 mM) [%]	Survival (% protection) (concentration 0.01 mM (MNC)) [%]	% protection of the MT-4 cells in MNC (Table 3, MT-4 cells infected with HIV-1, MTT assay, at MNC) [%]	SI = CC50/IC50
O=c1oc2cc(O)cc(O)c2c(O)c1-c1coc2c1c(=O)oc1cc(O)cc(O)c12 [Compound 1, 7,9-dihydroxy-3-(4,5,7-trihydroxy-2-oxo-2H-chromene-3-yl)-4H-furo[3,2-c]chromen-4-one]	10	0	50	55	60	75	92	100	1000 · 10^3
O=c1oc2cc(O)c(O)cc2c(O)c1-c1coc2c1c(=O)oc1cc(O)c(O)cc12 [Compound 2, 7,8-dihydroxy-3-(4,6,7-trihydroxy-2-oxo-2H-chromen-3-yl)-4H-furo[3,2-c]chromen-4-one, reference compound]	5000	0	0	0	25	50	55	–	2 · 10^3
